The values below are quoted from earlier work in patent publication US10188773B2, “Compositions and devices of poly-4-hydroxybutyrate” (Tepha, Inc., priority 2013, dated 2019).

The conditions of the data set: metabolism in the body; Nelson et al. 1981, Sendelbeck et al. 1985.

As to `O=C(O)CCCO` [4HB, 4-hydroxybutyric acid], the half-life result is “approximately 27 minutes”.
